Assays:
[1] = molecular target: T1, SRC (Homo sapiens, UniProt P12931); experiment: KINOMEscan at 1 μM, SRC; format: binding; conditions: 1000 nM, read-out: Percent Control
T1 construct: purchased Eurofins DiscoverX KINOMEscan
Description: (§1) Supplement cells-12-00287-s001.zip/File S2. KinomeScan data for the CAMKK2 probe and negative control.xlsx, sheet "SGC-CAMKK2-1N" | column: Percent Control

[2] = molecular target: T2, BTK (Homo sapiens, UniProt Q06187); experiment: KINOMEscan at 1 μM, BTK; format: binding; conditions: 1000 nM, read-out: Percent Control
T2 construct: purchased Eurofins DiscoverX KINOMEscan
Description: as §1

[3] = molecular target: T3, EPHB6 (Homo sapiens, UniProt O15197); experiment: KINOMEscan at 1 μM, EPHB6; format: binding; conditions: 1000 nM, read-out: Percent Control
T3 construct: purchased Eurofins DiscoverX KINOMEscan
Description: as §1

[4] = molecular target: T4, CASK (Homo sapiens, UniProt O14936); experiment: KINOMEscan at 1 μM, CASK; format: binding; conditions: 1000 nM, read-out: Percent Control
T4 construct: purchased Eurofins DiscoverX KINOMEscan
Description: as §1

[5] = molecular target: T5, CAMK2B (Homo sapiens, UniProt Q13554); experiment: KINOMEscan at 1 μM, CAMK2B; format: binding; conditions: 1000 nM, read-out: Percent Control
T5 construct: purchased Eurofins DiscoverX KINOMEscan
Description: as §1

[6] = molecular target: T6, DYRK2 (Homo sapiens, UniProt Q92630); experiment: KINOMEscan at 1 μM, DYRK2; format: binding; conditions: 1000 nM, read-out: Percent Control
T6 construct: purchased Eurofins DiscoverX KINOMEscan
Description: as §1

[7] = molecular target: T7, AAK1 (Homo sapiens, UniProt Q2M2I8); experiment: KINOMEscan at 1 μM, AAK1; format: binding; conditions: 1000 nM, read-out: Percent Control
T7 construct: purchased Eurofins DiscoverX KINOMEscan
Description: as §1

[8] = molecular target: T8, EGFR(G719C) (Homo sapiens, UniProt P00533, G719C); experiment: KINOMEscan binding assay at 1 μM, EGFR(G719C); conditions: Compound Concentration 1000 nM; read-out: Percent Control
T8 construct: purchased Eurofins DiscoverX KINOMEscan
Description: as §1

[9] = molecular target: T9, JAK1(JH1domain-catalytic) (Homo sapiens, UniProt P23458); experiment: KINOMEscan at 1 μM, JAK1(JH1domain-catalytic); format: binding; conditions: 1000 nM, read-out: Percent Control
T9 construct: JAK1(JH1domain-catalytic); purchased Eurofins DiscoverX KINOMEscan
Description: as §1

[10] = molecular target: T10, RPS6KA5(Kin.Dom.2-C-terminal) (Homo sapiens, UniProt O75582); experiment: KINOMEscan at 1 μM, RPS6KA5(Kin.Dom.2-C-terminal); format: binding; conditions: 1000 nM, read-out: Percent Control
T10 construct: RPS6KA5(Kin.Dom.2-C-terminal); purchased Eurofins DiscoverX KINOMEscan
Description: as §1

[11] = molecular target: T11, EPHB1 (Homo sapiens, UniProt P54762); experiment: KINOMEscan at 1 μM, EPHB1; format: binding; conditions: 1000 nM, read-out: Percent Control
T11 construct: purchased Eurofins DiscoverX KINOMEscan
Description: as §1

[12] = molecular target: T12, CDK2 (Homo sapiens, UniProt P24941); experiment: KINOMEscan at 1 μM, CDK2; format: binding; conditions: 1000 nM, read-out: Percent Control
T12 construct: purchased Eurofins DiscoverX KINOMEscan
Description: as §1

[13] = molecular target: T13, AKT2 (Homo sapiens, UniProt P31751); experiment: KINOMEscan at 1 μM, AKT2; format: binding; conditions: 1000 nM, read-out: Percent Control
T13 construct: purchased Eurofins DiscoverX KINOMEscan
Description: as §1

[14] = molecular target: T14, ALK(C1156Y) (Homo sapiens, UniProt Q9UM73, C1156Y); experiment: KINOMEscan at 1 μM, ALK(C1156Y); format: binding; conditions: 1000 nM, read-out: Percent Control
T14 construct: purchased Eurofins DiscoverX KINOMEscan
Description: as §1

[15] = molecular target: T15, WEE2 (Homo sapiens, UniProt P0C1S8); experiment: KINOMEscan at 1 μM, WEE2; format: binding; conditions: 1000 nM, read-out: Percent Control
T15 construct: purchased Eurofins DiscoverX KINOMEscan
Description: as §1

[16] = molecular target: T16, CDK7 (Homo sapiens, UniProt P50613); experiment: KINOMEscan at 1 μM, CDK7; format: binding; conditions: 1000 nM, read-out: Percent Control
T16 construct: purchased Eurofins DiscoverX KINOMEscan
Description: as §1

[17] = molecular target: T17, RSK2(Kin.Dom.2-C-terminal) (Homo sapiens, UniProt P51812); experiment: KINOMEscan at 1 μM, RSK2(Kin.Dom.2-C-terminal); format: binding; conditions: 1000 nM, read-out: Percent Control
T17 construct: RSK2(Kin.Dom.2-C-terminal); purchased Eurofins DiscoverX KINOMEscan
Description: as §1

[18] = molecular target: T18, GRK3 (Homo sapiens, UniProt P35626); experiment: KINOMEscan at 1 μM, GRK3; format: binding; conditions: 1000 nM, read-out: Percent Control
T18 construct: purchased Eurofins DiscoverX KINOMEscan
Description: as §1

[19] = molecular target: T19, SNRK (Homo sapiens, UniProt Q9NRH2); experiment: KINOMEscan binding assay at 1 μM, SNRK; conditions: Compound Concentration 1000 nM; read-out: Percent Control
T19 construct: purchased Eurofins DiscoverX KINOMEscan
Description: as §1

[20] = molecular target: T20, IKK-epsilon (Homo sapiens, UniProt Q14164); experiment: KINOMEscan 1 μM, IKK-epsilon; format: binding; conditions: 1000 nM; Entrez IKBKE; read-out: Percent Control
T20 construct: purchased Eurofins DiscoverX KINOMEscan
Description: (§2) Supplement cells-12-00287-s001.zip/File S2. KinomeScan data for the CAMKK2 probe and negative control.xlsx, sheet "SGC-CAMKK2-1" | column: Percent Control

[21] = molecular target: T21, AKT1 (Homo sapiens, UniProt P31749); experiment: KINOMEscan 1 μM, AKT1; format: binding; conditions: 1000 nM; Entrez AKT1; read-out: Percent Control
T21 construct: purchased Eurofins DiscoverX KINOMEscan
Description: as §2

[22] = molecular target: T22, CDK4-cyclinD3 (Homo sapiens, UniProt P11802); experiment: KINOMEscan 1 μM, CDK4-cyclinD3; format: binding; conditions: 1000 nM; Entrez CDK4; read-out: Percent Control
T22 construct: purchased Eurofins DiscoverX KINOMEscan
Description: as §2

[23] = molecular target: T23, LKB1 (Homo sapiens, UniProt Q15831); experiment: KINOMEscan 1 μM, LKB1; format: binding; conditions: 1000 nM; Entrez STK11; read-out: Percent Control
T23 construct: purchased Eurofins DiscoverX KINOMEscan
Description: as §2

[24] = molecular target: T24, MAP3K4 (Homo sapiens, UniProt Q9Y6R4); experiment: KINOMEscan 1 μM, MAP3K4; format: binding; conditions: 1000 nM; Entrez MAP3K4; read-out: Percent Control
T24 construct: purchased Eurofins DiscoverX KINOMEscan
Description: as §2

[25] = molecular target: T25, BMPR1B (Homo sapiens, UniProt O00238); experiment: KINOMEscan 1 μM, BMPR1B; format: binding; conditions: 1000 nM; Entrez BMPR1B; read-out: Percent Control
T25 construct: purchased Eurofins DiscoverX KINOMEscan
Description: as §2

[26] = molecular target: T26, CDC2L5 (Homo sapiens, UniProt Q14004); experiment: KINOMEscan 1 μM, CDC2L5; format: binding; conditions: 1000 nM; Entrez CDK13; read-out: Percent Control
T26 construct: purchased Eurofins DiscoverX KINOMEscan
Description: as §2

[27] = molecular target: T27, CSF1R (Homo sapiens, UniProt P07333); experiment: KINOMEscan 1 μM, CSF1R; format: binding; conditions: 1000 nM; Entrez CSF1R; read-out: Percent Control
T27 construct: purchased Eurofins DiscoverX KINOMEscan
Description: as §2

[28] = molecular target: T11, EPHB1; experiment: KINOMEscan 1 μM, EPHB1; format: binding; conditions: 1000 nM; Entrez EPHB1; read-out: Percent Control
Description: as §2

[29] = molecular target: T28, STK36 (Homo sapiens, UniProt Q9NRP7); experiment: KINOMEscan 1 μM, STK36; format: binding; conditions: 1000 nM; Entrez STK36; read-out: Percent Control
T28 construct: purchased Eurofins DiscoverX KINOMEscan
Description: as §2

[30] = molecular target: T29, p38-gamma (Homo sapiens, UniProt P53778); experiment: KINOMEscan 1 μM, p38-gamma; format: binding; conditions: 1000 nM; Entrez MAPK12; read-out: Percent Control
T29 construct: purchased Eurofins DiscoverX KINOMEscan
Description: as §2

[31] = molecular target: T30, PIM1 (Homo sapiens, UniProt P11309); experiment: KINOMEscan 1 μM, PIM1; format: binding; conditions: 1000 nM; Entrez PIM1; read-out: Percent Control
T30 construct: purchased Eurofins DiscoverX KINOMEscan
Description: as §2

[32] = molecular target: T31, IRAK3 (Homo sapiens, UniProt Q9Y616); experiment: KINOMEscan 1 μM, IRAK3; format: binding; conditions: 1000 nM; Entrez IRAK3; read-out: Percent Control
T31 construct: purchased Eurofins DiscoverX KINOMEscan
Description: as §2

[33] = molecular target: T32, RET(V804M) (Homo sapiens, UniProt P07949, V804M); experiment: DiscoverX KINOMEscan binding assay at 1 μM, RET(V804M); conditions: Compound Concentration 1000 nM, read-out: Percent Control
T32 construct: purchased Eurofins DiscoverX KINOMEscan
Description: as §2

T11 sequence (P54762 18-984): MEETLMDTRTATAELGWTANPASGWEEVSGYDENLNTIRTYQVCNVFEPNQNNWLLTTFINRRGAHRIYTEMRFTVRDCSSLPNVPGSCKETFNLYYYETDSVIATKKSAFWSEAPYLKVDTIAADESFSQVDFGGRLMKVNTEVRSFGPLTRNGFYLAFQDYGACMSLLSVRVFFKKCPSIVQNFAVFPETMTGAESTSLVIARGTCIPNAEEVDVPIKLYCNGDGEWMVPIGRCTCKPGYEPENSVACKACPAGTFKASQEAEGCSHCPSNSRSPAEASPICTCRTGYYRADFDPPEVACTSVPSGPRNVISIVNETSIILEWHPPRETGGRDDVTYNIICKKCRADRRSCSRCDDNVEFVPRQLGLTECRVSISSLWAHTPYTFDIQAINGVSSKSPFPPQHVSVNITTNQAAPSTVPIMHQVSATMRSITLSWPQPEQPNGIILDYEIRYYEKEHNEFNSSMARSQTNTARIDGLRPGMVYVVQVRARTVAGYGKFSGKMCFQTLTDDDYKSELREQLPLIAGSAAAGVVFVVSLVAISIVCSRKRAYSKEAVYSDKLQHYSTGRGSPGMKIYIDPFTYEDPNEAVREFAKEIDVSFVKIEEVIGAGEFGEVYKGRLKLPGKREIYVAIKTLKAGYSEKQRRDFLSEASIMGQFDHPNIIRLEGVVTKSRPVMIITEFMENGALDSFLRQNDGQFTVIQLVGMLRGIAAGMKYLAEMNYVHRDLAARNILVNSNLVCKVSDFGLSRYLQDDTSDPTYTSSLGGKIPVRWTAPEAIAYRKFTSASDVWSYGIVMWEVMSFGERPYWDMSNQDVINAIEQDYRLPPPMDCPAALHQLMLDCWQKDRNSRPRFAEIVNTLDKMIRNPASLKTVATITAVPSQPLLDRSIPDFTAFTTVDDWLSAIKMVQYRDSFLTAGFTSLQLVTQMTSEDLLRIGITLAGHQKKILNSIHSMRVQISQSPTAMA
T21 sequence (P31749 whole entry): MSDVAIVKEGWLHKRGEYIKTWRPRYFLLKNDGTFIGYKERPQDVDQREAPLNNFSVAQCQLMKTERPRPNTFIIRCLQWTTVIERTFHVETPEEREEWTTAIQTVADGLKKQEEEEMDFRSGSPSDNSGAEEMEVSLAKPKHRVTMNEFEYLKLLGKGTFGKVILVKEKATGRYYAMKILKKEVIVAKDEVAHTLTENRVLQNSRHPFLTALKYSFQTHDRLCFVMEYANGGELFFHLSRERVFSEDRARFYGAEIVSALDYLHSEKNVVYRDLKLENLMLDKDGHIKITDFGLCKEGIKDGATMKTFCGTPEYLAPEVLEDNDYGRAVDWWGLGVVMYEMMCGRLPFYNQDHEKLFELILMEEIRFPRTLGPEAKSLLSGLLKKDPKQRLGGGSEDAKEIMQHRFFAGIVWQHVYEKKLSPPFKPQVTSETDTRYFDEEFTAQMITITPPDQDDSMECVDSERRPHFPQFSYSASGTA
T20 sequence (Q14164 whole entry): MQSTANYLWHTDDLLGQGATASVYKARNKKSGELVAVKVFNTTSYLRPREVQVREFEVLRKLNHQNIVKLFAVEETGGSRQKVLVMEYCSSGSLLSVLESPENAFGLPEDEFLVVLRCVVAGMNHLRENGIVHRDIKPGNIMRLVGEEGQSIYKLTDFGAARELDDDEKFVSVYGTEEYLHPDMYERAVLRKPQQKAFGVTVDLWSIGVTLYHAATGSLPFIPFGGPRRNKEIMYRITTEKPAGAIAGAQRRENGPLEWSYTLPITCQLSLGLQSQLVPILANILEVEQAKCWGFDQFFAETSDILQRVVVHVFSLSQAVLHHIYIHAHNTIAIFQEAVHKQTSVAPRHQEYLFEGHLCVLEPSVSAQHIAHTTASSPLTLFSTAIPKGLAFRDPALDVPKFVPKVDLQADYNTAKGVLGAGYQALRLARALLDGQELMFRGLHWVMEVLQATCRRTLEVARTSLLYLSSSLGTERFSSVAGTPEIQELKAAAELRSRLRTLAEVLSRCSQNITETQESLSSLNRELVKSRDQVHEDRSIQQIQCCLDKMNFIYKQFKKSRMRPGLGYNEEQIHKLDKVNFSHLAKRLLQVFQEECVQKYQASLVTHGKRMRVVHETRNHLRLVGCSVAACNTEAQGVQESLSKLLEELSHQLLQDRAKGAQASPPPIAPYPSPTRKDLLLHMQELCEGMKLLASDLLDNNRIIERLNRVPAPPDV
T30 sequence (P11309 whole entry): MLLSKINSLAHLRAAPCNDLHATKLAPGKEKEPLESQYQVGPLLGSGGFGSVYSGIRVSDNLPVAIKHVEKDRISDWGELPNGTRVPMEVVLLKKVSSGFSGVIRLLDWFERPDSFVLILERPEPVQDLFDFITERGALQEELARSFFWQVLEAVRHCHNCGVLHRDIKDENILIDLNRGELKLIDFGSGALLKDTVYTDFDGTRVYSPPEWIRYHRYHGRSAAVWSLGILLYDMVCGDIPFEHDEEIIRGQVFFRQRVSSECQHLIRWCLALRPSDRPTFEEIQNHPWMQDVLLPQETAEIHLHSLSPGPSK
T5 sequence (Q13554 whole entry): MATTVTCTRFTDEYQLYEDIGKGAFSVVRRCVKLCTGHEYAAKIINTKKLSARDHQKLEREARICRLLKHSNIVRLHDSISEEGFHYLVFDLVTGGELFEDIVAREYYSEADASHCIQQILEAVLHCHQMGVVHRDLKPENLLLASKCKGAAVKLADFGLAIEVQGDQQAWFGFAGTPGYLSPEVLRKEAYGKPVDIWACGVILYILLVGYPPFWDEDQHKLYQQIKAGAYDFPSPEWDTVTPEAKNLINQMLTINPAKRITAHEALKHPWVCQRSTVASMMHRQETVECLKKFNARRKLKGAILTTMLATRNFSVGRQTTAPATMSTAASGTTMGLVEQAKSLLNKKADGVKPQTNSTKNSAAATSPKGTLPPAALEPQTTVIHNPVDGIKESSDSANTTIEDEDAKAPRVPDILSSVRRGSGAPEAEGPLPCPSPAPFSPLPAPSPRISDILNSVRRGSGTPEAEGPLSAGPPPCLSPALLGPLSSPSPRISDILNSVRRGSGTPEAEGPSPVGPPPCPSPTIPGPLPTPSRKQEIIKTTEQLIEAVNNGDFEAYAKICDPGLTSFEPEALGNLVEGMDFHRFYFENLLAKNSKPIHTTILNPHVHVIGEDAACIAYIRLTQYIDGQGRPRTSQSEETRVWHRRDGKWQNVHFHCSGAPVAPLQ
T23 sequence (Q15831 whole entry): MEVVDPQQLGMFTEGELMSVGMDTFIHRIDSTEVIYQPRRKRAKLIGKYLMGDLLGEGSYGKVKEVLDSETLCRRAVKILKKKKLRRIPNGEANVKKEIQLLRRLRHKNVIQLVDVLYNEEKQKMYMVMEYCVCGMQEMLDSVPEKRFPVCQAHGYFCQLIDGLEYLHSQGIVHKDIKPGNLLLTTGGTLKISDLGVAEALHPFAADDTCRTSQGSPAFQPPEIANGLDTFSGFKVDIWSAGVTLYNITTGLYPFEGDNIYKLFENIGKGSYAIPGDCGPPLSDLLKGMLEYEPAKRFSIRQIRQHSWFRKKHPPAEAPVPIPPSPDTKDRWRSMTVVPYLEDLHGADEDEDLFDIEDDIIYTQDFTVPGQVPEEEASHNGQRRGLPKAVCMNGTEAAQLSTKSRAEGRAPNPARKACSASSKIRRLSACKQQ
T9 sequence (P23458 854-1154 limits assumed): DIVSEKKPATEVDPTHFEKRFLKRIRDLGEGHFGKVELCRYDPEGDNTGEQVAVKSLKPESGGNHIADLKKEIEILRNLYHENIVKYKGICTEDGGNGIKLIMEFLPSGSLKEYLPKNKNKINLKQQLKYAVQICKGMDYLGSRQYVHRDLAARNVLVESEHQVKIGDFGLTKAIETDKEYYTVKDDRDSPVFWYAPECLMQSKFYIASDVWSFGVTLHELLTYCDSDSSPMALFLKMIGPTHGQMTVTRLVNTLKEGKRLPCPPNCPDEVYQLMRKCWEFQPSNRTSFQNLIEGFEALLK
T17 sequence (P51812 398-740 limits assumed): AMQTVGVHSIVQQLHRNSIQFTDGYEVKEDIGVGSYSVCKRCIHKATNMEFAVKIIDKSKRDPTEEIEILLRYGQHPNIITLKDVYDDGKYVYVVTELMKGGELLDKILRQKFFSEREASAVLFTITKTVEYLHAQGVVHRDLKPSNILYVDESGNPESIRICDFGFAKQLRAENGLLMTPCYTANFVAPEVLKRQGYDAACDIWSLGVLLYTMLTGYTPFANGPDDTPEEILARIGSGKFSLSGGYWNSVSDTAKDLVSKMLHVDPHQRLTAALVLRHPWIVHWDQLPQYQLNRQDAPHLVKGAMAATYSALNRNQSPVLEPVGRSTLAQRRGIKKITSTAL
T15 sequence (P0C1S8 whole entry): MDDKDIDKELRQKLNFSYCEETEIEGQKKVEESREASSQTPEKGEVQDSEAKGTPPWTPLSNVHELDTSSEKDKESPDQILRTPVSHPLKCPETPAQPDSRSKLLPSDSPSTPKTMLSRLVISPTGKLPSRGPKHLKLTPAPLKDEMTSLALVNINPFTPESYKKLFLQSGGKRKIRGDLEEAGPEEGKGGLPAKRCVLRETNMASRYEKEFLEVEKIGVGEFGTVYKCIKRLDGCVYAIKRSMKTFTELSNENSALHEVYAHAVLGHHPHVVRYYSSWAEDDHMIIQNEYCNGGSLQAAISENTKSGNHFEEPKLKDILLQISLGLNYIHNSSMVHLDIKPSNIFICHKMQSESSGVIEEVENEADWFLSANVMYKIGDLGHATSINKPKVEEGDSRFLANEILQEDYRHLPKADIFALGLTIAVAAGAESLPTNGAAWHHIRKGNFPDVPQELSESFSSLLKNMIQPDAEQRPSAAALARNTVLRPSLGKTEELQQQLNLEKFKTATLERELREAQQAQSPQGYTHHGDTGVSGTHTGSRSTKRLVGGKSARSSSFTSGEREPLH

## O=C(O)c1ccc(-c2coc3ncc(-c4ccccc4)cc23)cc1Cl [SGC-CAMKK2-1N (UNC-YL-83)]
[1]
  remaining binding at 1 µM: 97%
[2]
  remaining binding at 1 µM: 60%
[3]
  remaining binding at 1 µM: 75%
[4]
  remaining binding at 1 µM: 81%
[5]
  remaining binding at 1 µM: 69%
[6]
  remaining binding at 1 µM: 100%
[7]
  remaining binding at 1 µM: 87%
[8]
  remaining binding at 1 µM: 100%
[9]
  remaining binding at 1 µM: 82%
[10]
  remaining binding at 1 µM: 82%
[11]
  remaining binding at 1 µM: 91%
[12]
  remaining binding at 1 µM: 91%
[13]
  remaining binding at 1 µM: 85%
[14]
  remaining binding at 1 µM: 0%
[15]
  remaining binding at 1 µM: 93%
[16]
  remaining binding at 1 µM: 66%
[17]
  remaining binding at 1 µM: 70%
[18]
  remaining binding at 1 µM: 66%
[19]
  remaining binding at 1 µM: 100%

## Cc1cccc(-c2cnc3occ(-c4ccc(C(=O)O)c(C5CCCC5)c4)c3c2)c1 [SGC-CAMKK2-1 (YL-36)]
[20]
  remaining binding at 1 µM: 100%
[21]
  remaining binding at 1 µM: 100%
[22]
  remaining binding at 1 µM: 100%
[23]
  remaining binding at 1 µM: 78%
[24]
  remaining binding at 1 µM: 100%
[25]
  remaining binding at 1 µM: 100%
[26]
  remaining binding at 1 µM: 100%
[27]
  remaining binding at 1 µM: 100%
[28]
  remaining binding at 1 µM: 100%
[29]
  remaining binding at 1 µM: 89%
[30]
  remaining binding at 1 µM: 82%
[31]
  remaining binding at 1 µM: 76%
[32]
  remaining binding at 1 µM: 88%
[33]
  remaining binding at 1 µM: 100%

— PMC9856672, “SGC-CAMKK2-1: A Chemical Probe for CAMKK2” (Cells, 2023)
